Results on 97 compounds are retold here after PubChem BioAssay AID1863 (Southern Research Specialized Biocontainment Screening …, 2009).

pIC50: −log10 of the molar value. “And” between values parts separate entries of the source, which are not always exact repeats. Equal entries are not always repeated.

This assay deals with S. Typhimurium PhoP-regulated promoter GFP reporter, 4 h. Nature of the assay: PhoP-dependent GFP reporter repression – Salmonella Typhimurium, primary screen (AID 1863).

`CCn1cc(C(=O)O)c(=O)c2cc(F)c(N3CCN(C(=S)NC(=O)c4ccccc4F)CC3)cc21`: the pIC50 was 4.54. Under `O=[N+]([O-])c1cc(Cl)c2cccnc2c1O` stands 5.51. Under `CC(C(=O)NC1C=CS(=O)(=O)C1)N1C(=O)/C(=C/c2ccc(Cl)cc2)SC1=S` (configuration not stated) stands 4.14; under `Cc1[nH]n(-c2ccccc2)c(=O)c1/C=N/Nc1nncc(-c2ccccc2)n1`, 4.53.

Regarding `CCCCCCCCCCCCCCCC[N+](C)(C)C`, the negative logarithm of the IC50 (pIC50) is 4.46. Under `CS(=O)(=O)c1ccc([C@@H](O)[C@@H](CF)NC(=O)C(Cl)Cl)cc1` stands 5.01; under `c1ccc2c(c1)Sc1ccccc1N2CC1CN2CCC1CC2` (configuration not stated), 3.87. Under `C[C@H]1c2cccc(O)c2C(O)=C2C(=O)[C@]3(O)C(O)=C(C(N)=O)C(=O)[C@@H](N(C)C)C3[C@@H](O)C21` (some centres not stated) stands 5.28; under `CCN1/C(=C/C=C/C=C/c2sc3ccccc3[n+]2CC)Sc2ccccc21`, 4.73. The same measure for `CCCCCCCCCCCCCCCCn1cc[n+](C)c1`: 4.77. With `NC1=NC[C@H](Cc2ccc(O)cc2)N1CCCCC1CCCCC1`, the negative logarithm of the IC50 (pIC50) is 4.24. In the case of `NCCc1c(-c2ccccc2)n(-c2ccccc2)c2ccccc12`, the negative-log IC50 (pIC50) was 4.18. For `Oc1ccc(CN2CCc3ccccc3C2)c2cccnc12`, the pIC50 was 4.37.

Regarding `CCCCCCCCCCOC(=O)Cn1c(COc2cccc(C)c2)[n+](C)c2ccccc21`, the pIC50 was 4.73. `O=[N+]([O-])c1cc(Cl)c(O)c2ncccc12`: the negative-log IC50 (pIC50) is 5.21.

With `CCCCCc1ccc(OCCOCCn2c[n+](C)c3ccccc32)c(CCCCC)c1`, the negative-log IC50 (pIC50) is 4.36. The same measure for `O=C(N/N=C\c1cccc([N+](=O)[O-])c1O)C1COc2ccccc2O1` (configuration not stated): 3.98; for `COc1ccc(/C=N/Nc2cc(C)nc3ccccc23)cc1`: 4.42. Under `Fc1ccccc1CCNCc1ccccc1` stands 4.23; under `CCn1cc(C(=O)O)c(=O)c2cc(F)c(N3CCN(C(=S)NC(=O)c4ccc(F)c(F)c4)CC3)cc21`, 4.33. For the compound `CC(C)COc1ccc(Cc2cnc(N)nc2N)cc1`, the pIC50 was 4.01. Under `CCCCCCCCCCCCCCCC[n+]1ccc(/C=N/O)cc1` stands 4.48; under `CCCCCCCCCC[N+](C)(C)CC/C=C1/c2ccccc2Sc2ccc(Cl)cc21`, 4.73. On to `CNC(=S)N1CCN(c2c(F)cc3c(=O)c(C(=O)O)cn(C4CC4)c3c2OC)CC1C` (configuration not stated), for which the pIC50 was 4.75.

As to `CCc1ccc(S(=O)(=O)/N=C2/C=C(Sc3ncn[nH]3)C(=O)c3ccccc32)cc1`, the pIC50 was 4.00.

Consider `CCCCCCCCn1c2c(c(=N)c3ccccc31)CCC2`, for which the pIC50 was 4.32. Under `Nc1cc(Cl)c2nonc2c1[N+](=O)[O-]` stands 4.24; under `CCn1cc(C(=O)O)c(=O)c2cc3c(cc21)OCO3`, 4.37; under `COc1c(N2CCN(C(=S)Nc3ccccc3F)C(C)C2)c(F)cc2c(=O)c(C(=O)O)cn(C3CC3)c12` (configuration not stated), 5.27. The same measure for `N=c1n(CC(=O)c2ccc(Br)s2)c2ccccc2n1Cc1ccccc1`: 4.17; for `Cc1ccc(/C=C/C(=O)c2ccccc(=O)c2O)cc1C`: 4.37. The same measure for `CCCCCCCCCCOC(=O)C[N+](C)(C)C/C=C(/C)Cl`: 4.29; for `NC(=NCCCCCCN=C(N)/N=C(\N)Nc1ccc(Cl)cc1)/N=C(\N)Nc1ccc(Cl)cc1`: 5.08 and 4.99 and 4.83. With `CCCCCCCCCCOC(=O)Cn1c(COc2ccc(OC)cc2)[n+](C)c2ccccc21`, the pIC50 is 4.64 and 4.65.

In the case of `OC(c1cc(C(F)(F)F)nc2c(Cl)cc(Cl)cc12)C1CCCCN1` (configuration not stated), the pIC50 is 3.99. For `CCCc1cnc(NCCNCC(O)COc2ccc(Cl)c(Cl)c2)nc1` (configuration not stated), the negative logarithm of the IC50 (pIC50) is 4.27. Under `Nc1nc(F)nc2c1ncn2[C@@H]1O[C@H](CO)[C@@H](O)[C@H]1O` stands 4.56.

As for `Cc1ccc(C(=O)O)cc1N=Cc1cc(Br)cc(Br)c1O`, the negative-log IC50 (pIC50) is 4.03. Under `COc1c(N2CCN[C@H](C)C2)c(F)cc2c(=O)c(C(=O)O)cn(C3CC3)c12` stands 6.44; under `CCn1cc(C(=O)O)c(=O)c2cc(F)c(N3CCN(C(=S)NC(=O)c4ccc(F)cc4)CC3)cc21`, 4.33. Under `Nc1cc2nsnc2cc1Br` stands 3.98; under `O=C(N/N=C/c1cc(O)ccc1Br)c1cccnc1`, 4.21. The same measure for `COc1ccc(CNC[C@@H](CCCCN(C)Cc2ccc(OC)cc2)N2C[C@H](c3ccccc3)N(CCc3ccc(Cl)c(Cl)c3)C(=O)C2=O)cc1`: 4.12; for `Oc1cccc(Nc2nc(NCC3CCCO3)c3ccccc3n2)c1` (configuration not stated): 3.85; for `O=C(N/N=C/c1cc([N+](=O)[O-])ccc1O)c1ccncc1`: 4.23.

Take `CCCCCC(CC(=O)NO)C(=O)NC(C(=O)N1CCCC1CO)C(C)C` (configuration not stated): the pIC50 is 4.90. Under `CN(C)CCCNc1cc(C(C)(C)C)nc2c(-c3ccccc3)cnn12` stands 4.17. Consider `O=C(O)CSc1cc(NS(=O)(=O)c2cccc([N+](=O)[O-])c2)c2ccccc2c1O`, for which the pIC50 is 3.88.

For the compound `CC1COc2c(N3CCN(C)CC3)c(F)cc3c(=O)c(C(=O)O)cn1c23` (configuration not stated), the pIC50 is 6.41. Under `Nc1cccc2nc3ccccc3cc12` stands 4.24. The same measure for `O=Nc1ccc(O)c2ncccc12`: 4.25; for `Oc1ccc(CN2CCN(Cc3ccccc3)CC2)c2cccnc12`: 4.21; for `COc1ccc(C(=O)Cn2nc(CNc3ccc(Br)cc3)[n+]3c2CCCCC3)cc1`: 4.09. Under `O=C1C=C(N2CCOCC2)c2ccccc2C1=O` stands 4.29; under `COc1nsnc1NS(=O)(=O)c1ccc(NC(=S)NC(=O)c2cccnc2)cc1`, 3.94. For the compound `CCCCCCCCCn1c2c(c(=N)c3c1CCC3)CCC2`, the negative-log IC50 (pIC50) was 4.43. Under `CN1/C(=C\C=C\C2=[N+](C)c3ccc4ccccc4c3C2(C)C)C(C)(C)c2ccccc21` stands 4.99; under `CSCC[C@H](NC(=O)Nc1ccc(C)cc1)C(=O)O`, 3.91; under `CCCCCNCC(=O)Nc1cccc(C(=O)Nc2cccc(C(F)(F)F)c2)c1`, 4.02. `Clc1c(OCCCn2ccnc2)ccc2ccccc12`: the pIC50 was 4.03. The same measure for `O=C1c2ccccc2C(=O)c2[nH]c(=O)[nH]c21`: 4.84. Regarding `Cc1cccc(Nc2c3c(nc4ccccc24)CCC3)c1`, the pIC50 was 3.97. Under `CN(C)C1C(=O)C(C(N)=O)=C(O)C2(O)C(=O)C3=C(O)c4c(O)cccc4C(C)(O)C3CC12` (configuration not stated) stands 5.45; under `O=C(CSc1nc2ccccc2s1)N/N=C/c1cc([N+](=O)[O-])ccc1O`, 3.96. The same measure for `Nc1ncn(C2O[C@H](CO)[C@@H](O)[C@H]2O)c(=O)n1` (some centres not stated): 4.40; for `O=C(N/N=C/c1ccc([N+](=O)[O-])o1)c1ccc(O)cc1`: 4.48; for `C[C@H]1COc2c(N3CCN(C)CC3)c(F)cc3c(=O)c(C(=O)O)cn1c23`: greater than 6.64. `O=C(Nc1nc(-c2ccccn2)cs1)c1ccc(Cl)s1`: the pIC50 was 4.16. The same measure for `O=S1(=O)Nc2c(ccc3cccnc23)-c2ccccc21`: 5.11; for `CC(=O)c1c(C)n([O-])c2cc(F)c(F)cc2[n+]1=O`: 3.89. The same measure for `Cc1ccc(C(=O)Sc2cccccc2=O)cc1`: 4.67. On to `COc1c(F)c(F)cc2c(=O)c(C(=O)O)cn(C3CC3)c12`, for which the negative-log IC50 (pIC50) is 4.43. Under `CCn1cc(C(=O)O)c(=O)c2cc(F)c(N3CCN(C(=S)NC(=O)c4c(OC)cccc4OC)CC3)cc21` stands 4.52; under `COc1ccc(C(=O)N/N=C/c2sc3ccccc3c2O)cc1`, 3.97; under `C#CCOCCOCCOCCNc1nc(N2CCN(C(=O)CCCCCCCCCCNC(=O)[C@H](CCCN=C(N)N)n3cc(C[C@@H](C)CC)nn3)CC2)nc(N2CCN(C(=O)CCCCCCCCCCNC(=O)[C@@H]([C@H](C)CC)n3cc(CCCCCN)nn3)CC2)n1`, 4.08. The same measure for `C=CC1=C(C(=O)O)N2C(=O)[C@@H](NC(=O)/C(=N\O)c3csc(N)n3)[C@H]2SC1` (stereo in doubt): 4.60; for `CCCCCCOC(=O)C[N+](C)(C)CCOC1CC2CCC1(C)C2(C)C` (configuration not stated): 4.40. Turning to `Cc1ccccc1Nc1cc(C)c2c(O)cccc2n1`, the negative-log IC50 (pIC50) is 4.21.

`O=C(c1cccs1)c1no[n+]([O-])c1C(=O)c1cccs1`: the negative-log IC50 (pIC50) is 4.47. The same measure for `CN1CCN(c2c(F)cc3c(=O)c(C(=O)O)cn4c3c2OCN4C)CC1`: 6.59; for `CN(C)CCCN(C(=O)CCc1ccccc1)c1nc2ccc(Cl)cc2s1`: 4.32. Under `C=C1c2c(Cl)ccc(O)c2C(O)=C2C(=O)[C@]3(O)C(O)=C(C(N)=O)C(=O)[C@@H](N(C)C)[C@@H]3[C@@H](O)C12` (some centres not stated) stands 5.65. The same measure for `CCCCCCCCn1c2c(c(=N)c3c1CCC3)CCCC2`: 4.17. Regarding `Clc1ccc(OCCCNCc2ccccc2)c(Br)c1`, the negative logarithm of the IC50 (pIC50) was 4.16. `Cc1cc(C)n(-c2nc(NCCN(C)C)c3c4c(sc3n2)CCCC4)n1`: the pIC50 is 3.99. Take `CCn1cc(C(=O)O)c(=O)c2cc(F)c(N3CCN(C(=S)Nc4ccc(OC)cc4)CC3)cc21`: the pIC50 was 5.22. With `Oc1cccc(Nc2c3ccccc3nc3ccccc23)c1`, the pIC50 was 3.83. In the case of `NC(N)=NN=C1CCCCCCCCCCC1`, the negative logarithm of the IC50 (pIC50) is 4.00. On to `CCN1/C(=C/C(C)=C/c2sc3ccccc3[n+]2CC)Sc2ccccc21`, for which the pIC50 is 4.75. `O=C1NN(c2ccccc2)C(=O)/C1=C\c1coc2ccc(O)cc2c1=O`: the negative logarithm of the IC50 (pIC50) is 3.88. Under `CC(=O)Oc1cc2cccc(OC(C)=O)c(=O)c2c(OC(C)=O)c1OC(C)=O` stands 4.33; under `CCn1cc(C(=O)O)c(=O)c2cc(F)c(N3CCN(C(=S)NC(=O)c4ccccc4)CC3)cc21`, 4.98; under `N=c1n(Cc2ccccc2)c2ccccc2n1CC(O)COc1ccc(Cl)cc1Cl` (configuration not stated), 4.45. Under `Fc1ccc(CCNCc2ccc(Cl)c(Cl)c2)cc1` stands 4.07. The same measure for `O=C1c2ccccc2NC(c2ccc(-c3ccc(Br)cc3)o2)N1O` (configuration not stated): 3.98.

On to `CCCCN(CCCC)C(=O)c1cn(CC)c2cc(N3CCN(C)CC3)c(F)cc2c1=O`, for which the negative logarithm of the IC50 (pIC50) is 4.94. The same measure for `CCN1/C(=C/C=C/c2sc3ccccc3[n+]2CC)Sc2ccccc21`: 4.47.

As usually defined, the pIC50 is the IC50 on a negative log10 scale, so that one unit is a factor of ten.
